The values below come from patent US7842685B2, “S1P1 receptor agonists and use thereof” (Amgen Inc., priority 2008, dated 2010).

Counter-ions that a name gives are not always drawn.

The target in this assay is T1, hS1P1 receptor (Homo sapiens, UniProt P21453).
T1 construct: host or cells: U2OS
The assay is described as follows: hS1P1 receptor internalization assay (cell imaging-based, hS1P1-eGFP U2OS cells). The settings on record: U2OS cell line expressing hS1P1-eGFP, compounds incubated at 37° C. for one hour; for Emax: 1 h, efficacy (Max), read-out: hS1P1 Receptor Internalization (biolimaging) Max (%); for EC50: GFP-containing endosomes per cell (ArrayScan), read-out: hS1P1 Receptor Internalization (bioimaging) EC50 IP. The procedure: The activity of compounds of the invention was determined by a cell imaging-based assay measuring the degree of hS1P1 receptor internalization and a Ca^2+ mobilization assay measuring the level of S1P receptor activation. The receptor internalization assay was employed to determine the potency and efficacy of compounds on hS1P1 receptor, while Ca^2+ mobilization assay was used to determine selectivity among different S1P receptors and activity on S1P receptors from species such as rat, dog, and cyno. The hS1P1 receptor internalization assay was performed using a U2OS cell line expressing hS1P1-eGFP chimeric protein (Thermo Scientific, Soeborg, Denmark). Upon compound treatment, the hS1P1 receptor was internalized in cytoplasma and formed GFP-containing-endosomes. This event was detected by an automated microscope, ArrayScan (Thermo Scientific Cellomics, Pittsburg), and the degree of receptor internalization is quantitated by counting green fluorescent GFP-containing endosomes per cell. In this assay, hS1P1-eGFP expressing U2OS cells were starved in serum free media for two hours prior to compound treatment. Then compounds were incubated with the starved cells at 37° C. for one hour. Subsequently, compound-treated cells were fixed using 4% formaldehyde, and the nuclei were stained using Hoechst. Then the cells were imaged in ArrayScan. The potency and efficacy of the compounds were determined by plotting the number of green fluorescent GFP-containing endosomes per cell against corresponding compound concentration.

T1 sequence (P21453 whole entry): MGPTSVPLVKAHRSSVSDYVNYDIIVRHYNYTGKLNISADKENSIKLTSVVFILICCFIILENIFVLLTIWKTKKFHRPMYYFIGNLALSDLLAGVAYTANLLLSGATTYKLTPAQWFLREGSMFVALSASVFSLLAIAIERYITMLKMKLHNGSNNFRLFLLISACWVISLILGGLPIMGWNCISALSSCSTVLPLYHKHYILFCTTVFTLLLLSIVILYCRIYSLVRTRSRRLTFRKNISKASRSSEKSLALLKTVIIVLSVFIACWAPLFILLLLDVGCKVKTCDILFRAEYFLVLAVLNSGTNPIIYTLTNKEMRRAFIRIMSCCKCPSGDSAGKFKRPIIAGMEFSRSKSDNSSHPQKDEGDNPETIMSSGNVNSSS

As a reminder, the EC50 is the midpoint of the concentration-response curve. As to `O=C(O)c1cn(Cc2ccc(-c3nc4ccc(C5(c6ccccc6)CC5)nc4s3)c(F)c2)cn1` [Example 96, 1-(3-fluoro-4-(5-(1-phenylcyclopropyl)thiazolo[5,4-b]pyridin-2-yl)benzyl)-1H-imidazole-4-carboxylic acid hydrochloride], the Emax worked out at 105% and the EC50 is 10.9 nM.
The matching figures for `O=C(O)c1cnn(Cc2ccc(-c3nc4ccc(C5(c6ccccc6)CC5)nc4s3)c(F)c2)c1` [Example 98, 1-(3-fluoro-4-(5-(1-phenylcyclopropyl)thiazolo[5,4-b]pyridin-2-yl)benzyl)-1H-pyrazole-4-carboxylic acid hydrochloride]: 93% and 44.9 nM.
With `O=C(c1ccc(-c2nc3ccc(C4(c5ccccc5)CC4)nc3s2)c(F)c1)N1CCC1` [Example 105, 2-(4-(1-azetidinylcarbonyl)-2-fluorophenyl)-5-(1-phenylcyclopropyl)-[1,3]thiazolo[5,4-b]pyridine], the Emax came to 63% and the EC50 is 3330 nM.
The matching figures for `CN(CCO)C(=O)c1ccc(-c2nc3ccc(C4(c5ccccc5)CC4)nc3s2)c(F)c1` [Example 109, 3-fluoro-N-(2-hydroxyethyl)-N-methyl-4-(5-(1-phenylcyclopropyl)-[1,3]thiazolo[5,4-b]pyridin-2-yl)benzamide]: 41% and 2350 nM.
The like results for `O=C(NC1CC1)c1ccc(-c2nc3ccc(C4(c5ccccc5)CC4)nc3s2)c(F)c1` [Example 113, N-cyclopropyl-3-fluoro-4-(5-(1-phenylcyclopropyl)[1,3]thiazolo[5,4-b]pyridin-2-yl)benzamide] were, in that order, 55% and 732 nM.
The matching figures for `O=C(Nc1ccc(-c2nc3ccc(C4(c5ccccc5)CC4)nc3s2)c(F)c1)C(F)(F)F` [Example 118, 2,2,2-trifluoro-N-(3-fluoro-4-(5-(1-phenylcyclopropyl)[1,3]thiazolo[5,4-b]pyridin-2-yl)phenyl)acetamide]: 111% and 298 nM.
As for `CNc1ccc(-c2nc3ccc(C4(c5ccccc5)CC4)nc3s2)c(F)c1` [Example 121, 3-fluoro-N-methyl-4-(5-(1-phenylcyclopropyl)[1,3]thiazolo[5,4-b]pyridin-2-yl)aniline], the Emax turned out to be 125% and the EC50 was 777 nM.
The matching figures for `O=C(O)CCS(=O)(=O)Nc1ccc(-c2nc3ccc(C4(c5ccccc5)CC4)nc3s2)c(F)c1` [Example 124, 3-((3-fluoro-4-(5-(1-phenylcyclopropyl)[1,3]thiazolo[5,4-b]pyridin-2-yl)phenyl)sulfamoyl)propanoic acid]: 131% and 946 nM.
As to `N[C@H](CC(=O)O)C(=O)Nc1ccc(-c2nc3ccc(C4(c5ccccc5)CC4)nc3s2)c(F)c1` [Example 126, N-(3-fluoro-4-(5-(1-phenylcyclopropyl)[1,3]thiazolo[5,4-b]pyridin-2-yl)phenyl)-D-alpha-asparagine TFA salt], the Emax came to 100% and the EC50 was 0.6 nM.
The matching figures for `O=C(O)[C@H]1C[C@@H](Nc2ccc(-c3nc4ccc(C5(c6ccccc6)CC5)nc4s3)c(F)c2)C1` [Example 130, cis-3-((3-fluoro-4-(5-(1-phenylcyclopropyl)[1,3]thiazolo[5,4-b]pyridin-2-yl)phenyl)amino)cyclobutanecarboxylic acid]: 89% and 11.6 nM.
The like results for `O=C(O)C[C@H](O)C(=O)Nc1ccc(-c2nc3ccc(C4(c5ccccc5)CC4)nc3s2)c(F)c1` [Example 133, (3S)-4-(3-fluoro-4-(5-(1-phenylcyclopropyl)thiazolo[5,4-b]pyridin-2-yl)phenylamino)-3-hydroxy-4-oxobutanoic acid] were, in that order, 133% and 2.2 nM.
Take `c1ccc(C2(c3ccc4nc(-c5ccc6[nH]ccc6c5)sc4n3)CC2)cc1` [Example 136, 2-(1H-indol-5-yl)-5-(1-phenylcyclopropyl)thiazolo[5,4-b]pyridine]: the Emax stood at 101% and the EC50 turned out to be 191 nM.
As for `CC(=O)NCCc1ccc(-c2nc3ccc(C4(c5ccccc5)CC4)nc3s2)c(F)c1` [Example 150, N-(2-(3-fluoro-4-(5-(1-phenylcyclopropyl)[1,3]thiazolo[5,4-b]pyridin-2-yl)phenyl)ethyl)acetamide], the Emax is 155% and the EC50 was 184 nM.
